# Results from PubChem BioAssay (NCI).
#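 Interpolation was linear, between the two tested concentrations surrounding the appropriate level; five concentrations were tested over 48 hours in 96-well plates. TGI: total growth inhibition.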
# Tests used:
# Experiment in all cases: NCI-60 cell line screen, 48 h
# CAKI-1 renal = tested on: CAKI-1 renal
# DMS 273 small cell lung = tested on: DMS 273 small cell lung
# HCC-2998 colon = tested on: HCC-2998 colon
# HCT-116 colon = tested on: HCT-116 colon
# HL-60(TB) leukemia = tested on: HL-60(TB) leukemia
# HOP-18 NSCLC = tested on: HOP-18 NSCLC
# HOP-92 NSCLC = tested on: HOP-92 NSCLC
# KM20L2 colon = tested on: KM20L2 colon
# LOX IMVI melanoma = tested on: LOX IMVI melanoma
# M19-MEL melanoma = tested on: M19-MEL melanoma
# NCI-H460 lung = tested on: NCI-H460 lung
# OVCAR-4 ovarian = tested on: OVCAR-4 ovarian
# SF-268 CNS = tested on: SF-268 CNS
# SF-539 CNS = tested on: SF-539 CNS
# SK-MEL-5 melanoma = tested on: SK-MEL-5 melanoma
# SNB-19 CNS = tested on: SNB-19 CNS
# SW-620 colon = tested on: SW-620 colon
# UACC-62 melanoma = tested on: UACC-62 melanoma
# A498 renal = tested on: A498 renal
# SNB-78 CNS = tested on: SNB-78 CNS
compound,measurement,setting,value
COc1ccc(C[C@H](N)C(=O)N2C[C@H](CO)C[C@H](n3cnc4c(N(C)C)ncnc43)C2)cc1,TGI,CAKI-1 renal,> 100 µM
same,TGI,DMS 273 small cell lung,> 100 µM
same,TGI,HCC-2998 colon,> 100 µM
same,TGI,HCT-116 colon,> 100 µM
same,TGI,HL-60(TB) leukemia,> 100 µM
same,TGI,HOP-18 NSCLC,> 100 µM
same,TGI,HOP-92 NSCLC,> 100 µM
same,TGI,KM20L2 colon,> 100 µM
same,TGI,LOX IMVI melanoma,> 100 µM
same,TGI,M19-MEL melanoma,> 100 µM
same,TGI,NCI-H460 lung,> 100 µM
same,TGI,OVCAR-4 ovarian,> 100 µM
same,TGI,SF-268 CNS,> 100 µM
same,TGI,SF-539 CNS,> 100 µM
same,TGI,SK-MEL-5 melanoma,> 100 µM
same,TGI,SNB-19 CNS,> 100 µM
same,TGI,SW-620 colon,> 100 µM
same,TGI,UACC-62 melanoma,> 100 µM
O=C1c2ccccc2C(=O)c2c1ccc1c2N=C(c2ccc(F)cc2)CC(c2ccc(Cl)c(Cl)c2)N1 (configuration not stated),TGI,A498 renal,54.9 µM
same,TGI,CAKI-1 renal,17 µM
same,TGI,HCC-2998 colon,27.8 µM
same,TGI,HCT-116 colon,23.7 µM
same,TGI,HL-60(TB) leukemia,35.9 µM
same,TGI,HOP-92 NSCLC,90 µM
same,TGI,KM20L2 colon,30.8 µM
same,TGI,LOX IMVI melanoma,18.3 µM
same,TGI,M19-MEL melanoma,40.4 µM
same,TGI,NCI-H460 lung,43 µM
same,TGI,OVCAR-4 ovarian,37 µM
same,TGI,SF-268 CNS,32.1 µM
same,TGI,SF-539 CNS,34.9 µM
same,TGI,SK-MEL-5 melanoma,31 µM
same,TGI,SNB-19 CNS,25.8 µM
same,TGI,SNB-78 CNS,41.5 µM
same,TGI,SW-620 colon,19 µM
same,TGI,UACC-62 melanoma,25.7 µM
CSc1nc(NC2OCC(O)C(O)C2O)c(N)c(=O)n1C (configuration not stated),TGI,A498 renal,> 100 µM
same,TGI,DMS 273 small cell lung,> 100 µM
same,TGI,HCC-2998 colon,> 100 µM
same,TGI,HCT-116 colon,> 100 µM
same,TGI,HL-60(TB) leukemia,> 100 µM
same,TGI,HOP-18 NSCLC,> 100 µM
same,TGI,HOP-92 NSCLC,> 100 µM
same,TGI,KM20L2 colon,> 100 µM
same,TGI,LOX IMVI melanoma,> 100 µM
same,TGI,NCI-H460 lung,> 100 µM
same,TGI,OVCAR-4 ovarian,> 100 µM
same,TGI,SF-268 CNS,> 100 µM
same,TGI,SF-539 CNS,> 100 µM
same,TGI,SK-MEL-5 melanoma,> 100 µM
same,TGI,SNB-19 CNS,> 100 µM
same,TGI,SNB-78 CNS,> 100 µM
same,TGI,SW-620 colon,> 100 µM
same,TGI,UACC-62 melanoma,> 100 µM
C[C@@H]1C[C@]2(C[C@@H](C)[C@H]3C(C[C@@]4(C)CCC[C@@H]5C6=C[C@H](CCC34C)OC6=CC(=O)OC5(C)C)O2)OC1=O (some centres not stated),TGI,A498 renal,> 51.5 µM
same,TGI,CAKI-1 renal,> 51.5 µM
same,TGI,DMS 273 small cell lung,> 51.5 µM
same,TGI,HCC-2998 colon,> 51.5 µM
same,TGI,HL-60(TB) leukemia,> 51.5 µM
same,TGI,HOP-18 NSCLC,> 51.5 µM
same,TGI,HOP-92 NSCLC,> 51.5 µM
same,TGI,KM20L2 colon,> 51.5 µM
same,TGI,LOX IMVI melanoma,> 51.5 µM
same,TGI,M19-MEL melanoma,> 51.5 µM
same,TGI,NCI-H460 lung,> 51.5 µM
same,TGI,OVCAR-4 ovarian,> 51.5 µM
same,TGI,SF-539 CNS,> 51.5 µM
same,TGI,SK-MEL-5 melanoma,> 51.5 µM
same,TGI,SNB-19 CNS,> 51.5 µM
same,TGI,SNB-78 CNS,> 51.5 µM
same,TGI,SW-620 colon,> 51.5 µM
same,TGI,UACC-62 melanoma,> 51.5 µM
